Measured values taken from US7230139B2, “Diterpenoid compounds, compositions thereof and their use as anti-cancer or anti-fungal agents” (priority 2004, dated 2007).
Where two headings read alike, the source gives them in different places. Values belong to the compound of their own block, whether it stands above or below them.

Columns and labels:
[1] = test system: H1299 and C33A cancer cells versus HMEC and MRC-5 normal cells; conditions: 72 h; 1.6 μM Compound 48, 10 μM etoposide, 100 nM staurosporine
Description: H1299 non-small cell lung carcinoma cells, C33A cervical carcinoma cells, Mrc-5 normal lung fibroblasts (American Type Culture Collection, Manassas, Va. USA) and HMEC normal mammary epithelial cells (Clonetics San Diego, Calif., USA) were cultured in RPMI 1640 media supplemented with 10% fetal calf serum (Sigma-Aldrich Inc., St. Louis, Mo. USA). The four cells lines were plated in 96-well microtiter plates (PerkinElmer Life Sciences Inc, Boston, Mass. USA) at a confluency that allowed them to reach confluence after 4 days of growth. One day after plating, the cells were treated either with 10 μM etoposide, 100 nM staurosporine or 1.6 μM of Compound 48. Stock solutions of each compound were prepared in dimethyl sulfoxide (Sigma-Aldrich Inc., St. Louis, Mo. USA), diluted in media then added to the cells. The total dimethyl sulfoxide on the cells was 1%. After 3 days of incubation, the ATP levels in the cells were quantified using the luminescent ViaLight detection system (Bio-Whittaker, Md., USA). The results were plotted relative to untreated control cells, which were set at 100.

[2] = test system: HMEC normal human mammary epithelial cells; assay: Cell viability, cellular ATP levels (Vialight HS); format: cell-based; conditions: Table 5, breast epithelial, ATP levels 72 h post-treatment
Excerpt: (§1) The following cell lines were used: A549 human non-small cell lung carcinoma; C33A human cervical carcinoma; H1299 human non-small cell lung carcinoma; Hep-3B human hepatocellular carcinoma; MIA-Paca-2 human pancreatic carcinoma; PC-3 human prostatic adenocarcinoma (American Type Culture Collection, Manassas, Va., USA); HMEC normal human mammary epithelial cells; HUVEC normal human umbilical vein endothelial cells; and NHBE normal human bronchial epithelial cells (Cambrex Bio Science, Rockland, Me., USA). […] HMEC, HUVEC and NHBE cell lines were cultured in MEGM, EGM-2 and BEGM media, respectively (Cambrex Bio Science, Rockland, Me., USA). The cell lines were plated in 96-well microtitre plate at a density of 2–4×10^3 cells per well. After 16 hours, the cells were treated with various concentrations of Compound 50a or Compound 50b. Stock solutions of Compound 50a and Compound 50b, respectively, were prepared in dimethyl sulfoxide at a concentration of 5 mM. Serial dilutions were prepared in RPMI, 10% FBS and 2% DMSO and then added to the cells. The total DMSO in the cell cultures was 1%. […] The IC50s were determined using a best-fit sigmoidal dose response curve with variable slope.

[3] = test system: HUVEC normal human umbilical vein endothelial cells; assay: Cell viability, cellular ATP levels (Vialight HS); format: cell-based; conditions: Table 5, ATP levels 72 h post-treatment
Excerpt: as §1

[4] = test system: Hep-3B human hepatocellular carcinoma; assay: Cell viability, cellular ATP levels (Vialight HS); format: cell-based; conditions: Hep3B, Table 5, liver, tumor, ATP levels 72 h post-treatment
Excerpt: as §1

[5] = test system: A549 human non-small cell lung carcinoma; assay: Cell viability, cellular ATP levels (Vialight HS); format: cell-based; conditions: Table 5, A549, NSCL-adrenocarinoma, tumor, ATP levels 72 h post-treatment
Excerpt: as §1

[6] = test system: NHBE normal human bronchial epithelial cells; assay: Cell viability, cellular ATP levels (Vialight HS); format: cell-based; conditions: Table 5, ATP levels 72 h post-treatment
Excerpt: as §1

[7] = test system: PC-3 human prostatic adenocarcinoma; assay: Cell viability, cellular ATP levels (Vialight HS); format: cell-based; conditions: Table 5, PC-3, prostate, tumor, ATP levels 72 h post-treatment
Excerpt: as §1

[8] = test system: MIA-Paca-2 human pancreatic carcinoma; assay: Cell viability, cellular ATP levels (Vialight HS); format: cell-based; conditions: Table 5, MIA-Paca-2, pancreas, tumor, ATP levels 72 h post-treatment
Excerpt: as §1

[9] = test system: C33A human cervical carcinoma; assay: Cell viability, cellular ATP levels (Vialight HS); format: cell-based; conditions: C-33-A
Excerpt: as §1
(§2) The selected tumor cell lines included C33A human cervical carcinoma and H1299 human non-small cell lung carcinoma (American Type Culture Collection, Manassas, Va., USA). The cell lines were cultured in RPMI 1640 media supplemented with 10% FBS (Hyclone, Logan, Vt., USA), 100 U/mL penicillin, 100 μg/mL streptomycin and 2 mM L-glutamine (Invitrogen, Carlsbad, Calif., USA). The cell lines were plated in 96-well microtitre plate at a density of 2–4×10^3 cells per well. After 16 hours, the cells were treated with various concentrations of compound 66, 67, 68, 69 and 70, respectively. Stock solutions of compounds 66, 67, 68, 69 and 70 were prepared in dimethyl sulfoxide at a concentration of 5 mM. Serial dilutions were prepared in RPMI, 10% FBS and 2% DMSO and then added to the cells. The total DMSO on the cells was 1%. […] The IC50s were determined using a best-fit sigmoidal dose response curve with variable slope.

[10] = test system: H1299 human non-small cell lung carcinoma; assay: Cell viability, cellular ATP levels (Vialight HS); format: cell-based
Excerpt: as §1, §2

[11] = test system: SW480 human colon carcinoma cancer cells; assay: SW480 colon carcinoma xenograft in SCID mice; format: in vivo, CB17 SCID/SCID female mice
Description: The resultant mice are a model for a human having colon carcinoma cancer.
The SW480 human colon carcinoma cancer cells were maintained in RPMI supplemented with 10% inactivated fetal bovine serum and 1% penicillin-streptomycin-L-Glutamine, under 5% CO2 at 37° C., and passaged twice a week. The cells were grown at a confluency lower than 70% and then collected with Trypsin (Bio-Whittaker, Md., USA). The cells were then centrifuged and washed twice using phosphate buffered saline solution (PBS) and resuspended in PBS at 1×10^6 cells per 100 μl. Viability was examined by staining with Trypan Blue and only flasks with cell viability of greater than 95% were used for in vivo studies.
(§3) SW480 cells were transplanted subcutaneously into the flank of female CB 17 SCID/SCID mice. Each mouse was inoculated with a suspension of 1×10^6 tumor cells per 100 μL on day zero. The following five treatment groups of ten mice each were used: (a) a negative control group treated with intravenous (i.v.) injection of vehicle, (b) a group treated with i.v. injection of a Compound 50, (c) a group treated with i.v. injection of a Compound 50a, (d) a group treated with i.v. injection of Compound 50b, (e) a group treated with i.v. injection of Compound 74a.
(§4) Treatment started on day twelve after SW480 cells transplantation and Compounds 50, 50a, 50b and 74a were administered i.v. once daily for five consecutive days at a dose of 10, 10, 10 and 50 mg/kg, respectively. Compound 50, 50a and 50b were prepared as a working solution of 1.5 mg/mL in a vehicle solution of 20% Cremaphor EL (Sigma, St. Louis, Miss., USA), and 10% Ethanol. Compound 74a was prepared as a working solution of 5 mg/mL in a vehicle solution of 5% Dextrose (Abbot Laboratories, QC, Canada). The negative control groups were treated with vehicle solution of 20% Cremaphor EL and 10% Ethanol alone.
(§5) The mice were weighed and the tumors measured on day 12 and every 2 to 3 days after treatment commenced. Observations continued for 23 days after initial tumor implantation. The changes in body weight and in the calculated tumor volume were plotted (FIGS. 9 and 10). Statistical analysis was performed using GraphPad Prism (GraphPad Software Inc., San Diego, Calif.). Two-way ANOVA was used to determine how the treatment affected tumor growth over time. Following the two-way ANOVA, post-tests were performed using the Benferroni method to determine the statistical difference between the mean tumor-size of the two groups being compared on every day that the tumors were measured.

[12] = Body weight of SW480 tumor-bearing mice; format: in vivo, CB17 SCID/SCID female mice; conditions: i.v. once daily for five days; 10 mg/kg (50, 50a, 50b), 50 mg/kg (74a)
Description: as §3, §4, §5

[13] = format: in vivo, CB17 SCID/SCID female mice; conditions: day 34; i.p. 3.5 mg/kg once every 3 days for fifteen days
Description: C33A cells were transplanted subcutaneously into the flank of female CB17 SCID/SCID mice. Each mouse was inoculated with a suspension of 2×10^6 tumor cells per 100 μL on day zero. The following six treatment groups of ten mice each were used: (a) a negative control group treated with intravenous (i.v.) injection of vehicle, (b) a negative control group treated with intraperitoneal (i.p.) injection of vehicle, (c) a positive control group treated with i.p. injection of Cisplatin, (d) a group treated with i.v. injection of a Compound 50, (e) a group treated with i.p. injection of Compound 50, and (f) a group treated with subcutaneous (s.c.) injection of Compound 50.
Treatment started on day thirteen after C33A cells transplantation for Compound 50 treated groups and on day fourteen for Cisplatin treated group. Compound 50 was administered i.v., i.p., and s.c. once daily for five consecutive days at a dose of 10, 15 and 30 mg/kg, respectively. Compound 50 was prepared as a working solution of 1.5 mg/mL in a vehicle solution of 20% Cremaphor EL (Sigma, St. Louis, Mo., USA), 10% Ethanol and 5% Dextrose (Abbot Laboratories, QC, Canada). The negative control groups were treated with vehicle alone. The positive control group was treated once every 3 days for fifteen days at a dose of 3.5 mg/kg. Cisplatin was formulated in PBS on each day of the injection and was administered i.p.
as §5, with “13” for “12”, “36” for “23”, “4” for “9”, “5).” for “10).”, “measured. […]” for “measured.”

[14] = Table 8, cellular ATP levels, read-out: IC50 C33A
[15] = NCI-H1299, Table 8, cellular ATP levels, read-out: IC50 H1299
[16] = Table 6, ATP levels 72 h post-treatment vs untreated cells, read-out: IC50 C33A
[17] = NCI-H1299, Table 6, ATP levels 72 h post-treatment vs untreated cells, read-out: IC50 H1299
[18] = Table 7, cellular ATP levels, read-out: IC50 C33A
[19] = NCI-H1299, Table 7, cellular ATP levels, read-out: IC50 H1299

- IC50 [9, 14]: 186 nM
- IC50 [10, 15]: 155 nM
SMILES: COc1ccc2c(c1)C1(C)C(=C(O)C2=O)C(C)(C)C(=O)CC1SCC(NC(=O)CCC(N)C(=O)O)C(=O)NCC(=O)O (stereo not drawn) [Compound 81]

- IC50 [9, 16]: 2530 nM
- IC50 [10, 17]: 2070 nM
SMILES: COc1ccc2c(c1)C1(C)C=CC(=O)C(C)(Cc3ccccc3)C1=C(O)C2=O (stereo not drawn) [Compound 68]

- IC50 [9, 14]: 216 nM
- IC50 [10, 15]: 208 nM
SMILES: COc1ccc2c(c1)C1(C)C(=C(O)C2=O)C(C)(C)C(=O)CC1SCC(NC(C)=O)C(=O)O (stereo not drawn) [Compound 80]

- IC50 [9, 18]: 200 nM
- IC50 [10, 19]: 302 nM
SMILES: CC1(C)C(=O)C=CC2(C)C1=C(O)C(=O)c1ccc(O)cc12 (stereo not drawn) [Compound 76]

- IC50 [9, 16]: 1550 nM
- IC50 [10, 17]: 1440 nM
SMILES: CCC1(C)C(=O)C=CC2(C)C1=C(O)C(=O)c1ccc(OC)cc12 (stereo not drawn) [Compound 66]

- IC50 [9, 16]: 1190 nM
- IC50 [10, 17]: 950 nM
SMILES: C=CCC1(C)C(=O)C=CC2(C)C1=C(O)C(=O)c1ccc(OC)cc12 (stereo not drawn) [Compound 67]

Continued, compound first:

SMILES: COc1cc([C@@H]2c3cc4c(cc3[C@@H](O[C@@H]3O[C@@H]5CO[C@@H](C)O[C@H]5[C@H](O)[C@H]3O)[C@H]3COC(=O)[C@H]23)OCO4)cc(OC)c1O [etoposide]
- Selective cytotoxicity towards cancer cells [1]: selectively cytotoxic towards cancer cells

SMILES: COc1ccc2c(c1)[C@@]1(C)C=CC(=O)C(C)(C)C1=C(O)C2=O [Compound 50a]
- IC50 [2]: 2300 nM
- IC50 [3]: 1700 nM
- IC50 [4]: 970 nM
- IC50 [5]: 630 nM
- IC50 [6]: 1200 nM
- IC50 [7]: 370 nM
- IC50 [8]: 660 nM
- IC50 ([9]; Table 5, C33A, cervix, tumor, ATP levels 72 h post-treatment, read-out: IC50): 500 nM
- IC50 ([10]; NCI-H1299, Table 5, H1299, NSCL-LC carcinoma, tumor, ATP levels 72 h post-treatment vs untreated cells, read-out: IC50): 550 nM
- Tumor growth compared to vehicle ([11]; i.v. 10 mg/kg once a day for five days): significant reduction (p<0.001)
- Change in body weight [12]: non-significant change in body weight

SMILES: COc1cc2c(cc1C)C(=O)C(O)=C1C(C)(C)C(=O)C=CC12C (stereo not drawn) [Compound 48, 10-Hydroxy-6-methoxy-1,1,4a,7-tetramethyl-1H,4aH-phenanthrene-2,9-dione]
- Selective cytotoxicity towards cancer cells [1]: selectively cytotoxic towards cancer cells

SMILES: CCOP(=O)(OCC)OC1=C2C(C)(C)C(=O)C=CC2(C)c2cc(OC)ccc2C1=O (stereo not drawn) [Compound 72]
- IC50 ([9]; read-out: IC50 C33A): 212 nM
- IC50 ([10]; NCI-H1299, read-out: IC50 H1299): 997 nM

SMILES: COc1ccc2c(c1)[C@@]1(C)C=CC(=O)C(C)(C)C1=C(OP(=O)(O)O)C2=O [Compound 74a]
- Tumor growth compared to vehicle ([11]; i.v. 50 mg/kg once daily for five days): significantly reduction (p<0.001)
- Change in body weight [12]: non-significant change in body weight

SMILES: N.N.[Cl][Pt][Cl] [Cisplatin, reference compound]
- Weight loss [13]: 19%

SMILES: COC(=O)C1=CC2(C)C(=C(O)C(=O)c3ccc(OC)cc32)C(C)(C)C1=O (stereo not drawn) [Compound 69]
- IC50 [9, 16]: 870 nM
- IC50 [10, 17]: 1360 nM

SMILES: COc1ccc2c(c1)C1(C)C=CC(=O)C(C)(C)C1C(=O)C2=O (stereo not drawn) [Compound 70]
- IC50 [9, 16]: 15900 nM
- IC50 [10, 17]: 16800 nM

SMILES: COc1ccc2c(c1)C1(C)C=CC(=O)C(C)(C)C1=C(OP(=O)(OCc1ccccc1)OCc1ccccc1)C2=O (stereo not drawn) [Compound 73]
- IC50 [9, 18]: 655 nM
- IC50 [10, 19]: 1540 nM
